We go through two compounds from paper PMC9656205, “In Vitro/In Vivo Translation of Synergistic Combination of MDM2 and MEK Inhibitors in Melanoma Using PBPK/PD Modelling: Part I” (International Journal of Molecular Sciences, 2022).

Structures are written as SMILES. Read-outs that look alike come from different tables or passages of the source.

Data set [1] concerns A375 melanoma tumour model. The data set is described as follows: In vivo efficacy, tumour growth inhibition in A375 xenograft. Further details: species or system CD-1 nude mice. To be noted: n = 6. As to the method: The studied compounds, namely HDM201 and Trametinib, were tested separately and in combination as a therapy against an A375 melanoma tumour model. Tested compounds were administrated in three and six doses per schedule. […] Data from this efficacy study indicate that HDM201 and Trametinib are more efficacious when they are used in combination, compared to their efficacy when administered separately (please refer to maximal tumour growth inhibition (TGI) percentage, presented in Table 7, and compounds efficacy in single and combined administrations, shown in Figure 9).
(§1) Crl:CD-1-Foxn1^nu female mice, 4–5 weeks old, from Charles River Germany, inoculated subcutaneously with A375 cells, were used for in vivo studies. Determination of compound concentrations in plasma and A375 tumour tissue homogenates were performed with the use of quantitative LC-MS/MS system. Plasma and tissue samples were resected at the following timepoints: 1.5, 4, 8, 24 h (n = 3 per timepoint) after oral administration. Pharmacokinetic parameters AUC, Cmax, and Tmax were calculated using MS Excel 2016. Area under the concentration versus time curve was calculated using the linear trapezoidal rule.
Determination of tumour growth was performed after oral gavage of Vehicle (60% PEG 400 (v/v), 10% Cremophor RH40 (v/v), 10% EtOH (v/v) and 20% Labrafil M1944CS (v/v)), Siremadlin, Trametinib or their combination in Vehicle. The volume of the administered formulation (10 mL/kg) of the compounds was always adjusted to the mice body weight.
Tumour volume (V) was recorded with an electronic calliper 2–3 times a week and was calculated based on its length and width, using the prolate ellipsoid equation [46] (Equation (1)):V (mm^3) = d^2 × D/2(1) where d is the tumour width (mm) and D is the tumour length (mm).
Tumour growth inhibition (TGI) value was calculated using Equation (2):TGI (%) = (100 − (T/C × 100))(2) where C is the mean tumour size in control group (mm^3) and T is the mean tumour size in treated group (mm^3).

The test system of data set [2] is A375 cells. As to the kind of experiment: RealTime-Glo MT cell viability assay, cytotoxicity and drug interaction analysis. The class given is cell-based. To be noted: Homo sapiens, A-375, n = 3; for IC50: A375 cells, 72 h incubation, read-out: RealTime-Glo IC50 ± SD. The method, then: (§2) Inhibition of tumour cell viability after single and combination drug treatment was measured with the use of MTS assay (CellTiter 96® AQueous Non-Radioactive Cell Proliferation Assay) and RealTime-Glo assay (RealTime-Glo™ MT Cell Viability Assay) in A375 cell line using standard manufacturer protocols. […] Drug combinations were tested in the matrix layout with the increasing concentrations of both drugs (please see Figures S1 and S2). […] Several independent assay repetitions were performed for MTS (n = 4) and RealTime-Glo assays (n = 3).
(§3) Drug combination interaction analysis was performed on in vitro cytotoxicity data from MTS and RealTime-Glo assays. […] For Synergyfinder analysis parameters, see Table S4. For a more detailed description of all Synergyfinder functions, please see its documentation and user instructions.

Data set [3] deals with A375 cells. As to the kind of experiment: Mean of MTS and RealTime-Glo assays (cytotoxicity / drug interaction metrics). The class given is cell-based, human. As to the method: as §2, §3
Data set [4] concerns A375 cells. As to the kind of experiment: MTS assay (CellTiter 96 AQueous) cytotoxicity and drug interaction analysis. The class given is cell-based. To be noted: Homo sapiens, A-375; for IC50: A375 cells, 72 h incubation, read-out: MTS IC50 ± SD. As to the method: as §2, §3
Data set [5] has as its system A375 cells. Further details: method as in PMID 30135191. Conditions: cell count by amount of ATP (CellTiter-Glo assay), read-out: Literature IC50; cited from earlier work.
The nature of data set [6]: Pharmacokinetics in plasma and A375 tumour tissue after single oral administration. Format: in vivo, CD-1 nude mice. Conditions: female, Crl:CD-1-Foxn1nu (CD-1 nude), mouse; for Cmax: n = 3; for AUC(0-t): n = 3, read-out: AUC0–24h ± SD. The method, then:
Pharmacokinetic profiles were determined after single oral administration of HDM201 (100 mg/kg) and Trametinib (1 mg/kg) in vehicle formulation in CD-1 nude mice. Initial analysis of compound concentrations included plasma and A375 tumour tissue homogenates.
as §1

Data set [7] relates to A375 cells. Also on record: method as in PMID 22169769. Conditions: cell count by DAPI nuclei staining, read-out: Literature IC50; cited from earlier work.
The mark [8] stands for this setting: A375 tumour tissue homogenate, 100 mg/kg, HDM201 100 mg/kg single oral, without Trametinib, A375 tumour.
Where [9] appears, read: A375 tumour tissue homogenate, HDM201 100 mg/kg single oral, with Trametinib 1 mg/kg, A375 tumour.
Setting [10] is: plasma, 100 mg/kg, HDM201 100 mg/kg single oral, without Trametinib, plasma.
[11] abbreviates: plasma, HDM201 100 mg/kg single oral, with Trametinib 1 mg/kg, plasma.
The mark [12] stands for this setting: plasma, range stated jointly for HDM201 and Trametinib, oral, mice, sparse sampling, read-out: typical Tmax.
Where [13] appears, read: A375 tumour tissue homogenate, 1 mg/kg, Trametinib 1 mg/kg single oral, with HDM201 100 mg/kg, A375 tumour.
[14] abbreviates: A375 tumour tissue homogenate, 1 mg/kg, Trametinib 1 mg/kg single oral, without HDM201, A375 tumour.
The mark [15] stands for this setting: plasma, 1 mg/kg, Trametinib 1 mg/kg single oral, with HDM201 100 mg/kg, plasma.
The mark [16] stands for this setting: plasma, 1 mg/kg, Trametinib 1 mg/kg single oral, without HDM201, plasma.

`COc1ncc(-c2nc3c(n2C(C)C)[C@H](c2ccc(Cl)cc2)N(c2cc(Cl)cn(C)c2=O)C3=O)c(OC)n1` [Siremadlin (HDM201), Siremadlin]: the “Max TGI (%) ± SEM” value is recorded as 33.39 ± 13.90% in data set [1] (HDM201 40 mg/kg qdx3, oral) and 76.94 ± 5.38% in data set [1] (HDM201 100 mg/kg qdx3, oral). The results for the IC50 in the data set with A375 cells [2], in the data set on A375 cells [4] (n = 4) and in the data set on A375 cells [5] were 260 ± 170 nM, 65.7 ± 4.7 nM and 764 nM, respectively. In addition, the viability at 4 µM in the data set on A375 cells [2] (RealTime-Glo, max concentration 4000 nM, last observation after 80h, read-out: % of viability at the last measurement ± SD) came out at 21 ± 6.86%. Further, in the data set with A375 cells [3] (Siremadlin), the “% of viability at the last measurement ± SD” value came out at 21.445 ± 6.389%. In addition, the viability at 0.2 µM in the data set with A375 cells [4] (MTS, max concentration 200 nM, last observation after 72h, n = 4 (resistant population estimate), read-out: % of viability at the last measurement ± SD) was 21.9 ± 5.92%. Also, the maximum concentration (Cmax) turned out to be 16.2 µM in data set [6] (setting [8]), 28.6 µM in data set [6] (setting [9]), 9.78 ± 2.98 µM in data set [6] (setting [10]) and 14.6 µM in data set [6] (setting [11]). Besides, the AUC(0-t) in data set [6] (setting [8]) was determined as 179 µM·h; in data set [6] (setting [9]) it was 219 µM·h; in data set [6] (setting [10]) it was 95.1 µM·h; in data set [6] (setting [11]), 108 µM·h. Further, the time to peak (Tmax) was 1.5 ± 1.44 h in data set [6] (A375 tumour tissue homogenate, 100 mg/kg, HDM201 100 mg/kg single oral, without Trametinib, A375 tumour, n = 3, read-out: Tmax ± SD); 1.5 ± 1.44 h in data set [6] (A375 tumour tissue homogenate, HDM201 100 mg/kg single oral, with Trametinib 1 mg/kg, A375 tumour, n = 3, read-out: Tmax ± SD); 1.5 ± 1.44 h in data set [6] (plasma, 100 mg/kg, HDM201 100 mg/kg single oral, without Trametinib, plasma, n = 3, read-out: Tmax ± SD); 1.5 ± 1.44 h in data set [6] (plasma, HDM201 100 mg/kg single oral, with Trametinib 1 mg/kg, plasma, n = 3, read-out: Tmax ± SD); 1.5 to 4 h in data set [6] (setting [12]).

For `CC(=O)Nc1cccc(-n2c(=O)n(C3CC3)c(=O)c3c(Nc4ccc(I)cc4F)n(C)c(=O)c(C)c32)c1` [Trametinib], the “Max TGI (%) ± SEM” value came to 65.47 ± 21.29% in data set [1] (Trametinib 0.3 mg/kg qdx6, oral) and 90.05 ± 1.13% in data set [1] (Trametinib 1 mg/kg qdx6, oral). Moreover, the half-maximal inhibitory concentration (IC50) in the data set on A375 cells [2] was 0.8 ± 0.4 nM; with A375 cells [4] (n = 4) it was 0.58 ± 0.03 nM; in the data set on A375 cells [7], 1 nM. For the same compound, the viability at 0.04 µM with A375 cells [2] (RealTime-Glo, max concentration 40 nM, last observation after 80h, read-out: % of viability at the last measurement ± SD) worked out at 14.9 ± 2.59%. For the same compound, the “% of viability at the last measurement ± SD” value with A375 cells [3] (Trametinib) turned out to be 14.097 ± 2.594%. Moreover, the viability at 0.004 µM with A375 cells [4] (MTS, max concentration 4 nM, last observation after 72h, n = 4, read-out: % of viability at the last measurement ± SD) was determined as 13.3 ± 2.6%. Also, the Cmax in data set [6] (setting [13]) was determined as 0.715 ± 0.197 µM; in data set [6] (setting [14]) it was 0.587 ± 0.0663 µM; in data set [6] (setting [15]) it was 0.354 ± 0.106 µM; in data set [6] (setting [16]), 0.567 ± 0.0494 µM. For the same compound, the AUC(0-t) in data set [6] (setting [13]) was found to be 9.66 ± 1.39 µM·h; in data set [6] (setting [14]), 9.13 ± 1.3 µM·h; in data set [6] (setting [15]), 4.48 ± 1.17 µM·h; in data set [6] (setting [16]), 5.58 ± 0.567 µM·h. The time to peak (Tmax) in data set [6] (A375 tumour tissue homogenate, 1 mg/kg, Trametinib 1 mg/kg single oral, with HDM201 100 mg/kg, A375 tumour, n = 3, read-out: Tmax ± SD) was 4 h; in data set [6] (A375 tumour tissue homogenate, 1 mg/kg, Trametinib 1 mg/kg single oral, without HDM201, A375 tumour, n = 3, read-out: Tmax ± SD) it was 4 h; in data set [6] (plasma, 1 mg/kg, Trametinib 1 mg/kg single oral, with HDM201 100 mg/kg, plasma, n = 3, read-out: Tmax ± SD) it was 4 ± 1.44 h; in data set [6] (plasma, 1 mg/kg, Trametinib 1 mg/kg single oral, without HDM201, plasma, n = 3, read-out: Tmax ± SD), 4 ± 1.44 h; in data set [6] (setting [12]), 1.5 to 4 h.
